Results as given in US20220281848A1, “PYRAZOLE-SUBSTITUTED PYRROLIDINONES AS HERBICIDES” (FMC Corporation, priority 2019, published 2022).

Tested on: plants
Test: Test D pre-emergence, other plants of Tables D1 and D3
Assay type: in vivo
Conditions: for damage to plant, ALOMY / damage to plant, AVEFA / damage to plant, BEAVA / damage to plant, BROTE / damage to plant, BRSNN / damage to plant, HORVW / damage to plant, SINAR: pre-emergence, 100=total damage, 0=no damage; for ABUTH damage to plant (100=total damage; 0=no damage) / AMARE damage to plant (100=total damage; 0=no damage) / DIGSA damage to plant (100=total damage; 0=no damage) / ECHCG damage to plant (100=total damage; 0=no damage) / ORYSA damage to plant (100=total damage; 0=no damage) / PANMI damage to plant (100=total damage; 0=no damage) / SETFA damage to plant (100=total damage; 0=no damage): preemergent
Procedure, shortened: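 Damage was rated visually from 0 (none) to 100 (total), at 20 DAA for pre-emergence and 15 d for post-emergence. Plants grew from safener-treated seed in a glasshouse at 24/18° C. or 20/16° C. day/night, 65% humidity, watered twice daily.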

`CN1CC(c2cc(C(F)(F)F)n(C)n2)C(C(=O)Nc2cccc(F)n2)C1=O` (racemic) [Compound 24] was tested. Which “damage to plant, ALOMY” value (rate 15, 20 DAA) did it give?
The value was 0.

What about the “damage to plant, AVEFA” value (rate 15, 20 DAA) of the same compound?
Its value is 0.

What about the “damage to plant, BEAVA” value (rate 15, 20 DAA) of the same compound?
The value was 0.

And the “damage to plant, BROTE” value (rate 15, 20 DAA)?
The value was 0.

And the “damage to plant, BRSNN” value (rate 15, 20 DAA)?
The value was 0.

And the “damage to plant, HORVW” value (rate 15, 20 DAA)?
The value was 0.

And the “damage to plant, SINAR” value (rate 15, 20 DAA)?
Its value is 0.

And the “damage to plant, ALOMY” value (rate 30, 20 DAA)?
Its value is 0.

What about the “damage to plant, AVEFA” value (rate 30, 20 DAA) of the same compound?
Its value is 0.

And the “damage to plant, BEAVA” value (rate 30, 20 DAA)?
The value was 0.

What about the “damage to plant, BROTE” value (rate 30, 20 DAA) of the same compound?
Its value is 0.

What about the “damage to plant, BRSNN” value (rate 30, 20 DAA) of the same compound?
Its value is 0.

And the “damage to plant, HORVW” value (rate 30, 20 DAA)?
Its value is 0.

What about the “damage to plant, SINAR” value (rate 30, 20 DAA) of the same compound?
The value was 0.

And the “damage to plant, ALOMY” value (rate 60, 20 DAA)?
The value was 0.

And the “damage to plant, AVEFA” value (rate 60, 20 DAA)?
Its value is 0.

What about the “damage to plant, BEAVA” value (rate 60, 20 DAA) of the same compound?
Its value is 0.

And the “damage to plant, BROTE” value (rate 60, 20 DAA)?
The value was 0.

What about the “damage to plant, BRSNN” value (rate 60, 20 DAA) of the same compound?
Its value is 0.

And the “damage to plant, HORVW” value (rate 60, 20 DAA)?
The value was 0.

What about the “damage to plant, SINAR” value (rate 60, 20 DAA) of the same compound?
The value was 0.

And the “damage to plant, ALOMY” value (rate 130, 20 DAA)?
The value was 0.

What about the “damage to plant, AVEFA” value (rate 130, 20 DAA) of the same compound?
The value was 0.

What about the “damage to plant, BEAVA” value (rate 130, 20 DAA) of the same compound?
Its value is 0.

What about the “damage to plant, BROTE” value (rate 130, 20 DAA) of the same compound?
The value was 0.

What about the “damage to plant, BRSNN” value (rate 130, 20 DAA) of the same compound?
Its value is 0.

And the “damage to plant, HORVW” value (rate 130, 20 DAA)?
Its value is 0.

What about the “damage to plant, SINAR” value (rate 130, 20 DAA) of the same compound?
The value was 0.

And the “damage to plant, ALOMY” value (rate 250, 20 DAA)?
Its value is 0.

And the “damage to plant, AVEFA” value (rate 250, 20 DAA)?
Its value is 0.

What about the “damage to plant, BEAVA” value (rate 250, 20 DAA) of the same compound?
The value was 0.

And the “damage to plant, BROTE” value (rate 250, 20 DAA)?
The value was 0.

What about the “damage to plant, BRSNN” value (rate 250, 20 DAA) of the same compound?
The value was 0.

What about the “damage to plant, HORVW” value (rate 250, 20 DAA) of the same compound?
Its value is 0.

What about the “damage to plant, SINAR” value (rate 250, 20 DAA) of the same compound?
The value was 0.

And the “damage to plant, ALOMY” value (rate 500, 20 DAA)?
The value was 10.

And the “damage to plant, AVEFA” value (rate 500, 20 DAA)?
The value was 10.

And the “damage to plant, BEAVA” value (rate 500, 20 DAA)?
The value was 0.

What about the “damage to plant, BROTE” value (rate 500, 20 DAA) of the same compound?
Its value is 0.

What about the “damage to plant, BRSNN” value (rate 500, 20 DAA) of the same compound?
The value was 0.

What about the “damage to plant, HORVW” value (rate 500, 20 DAA) of the same compound?
The value was 20.

And the “damage to plant, SINAR” value (rate 500, 20 DAA)?
Its value is 0.

And the “ABUTH damage to plant (100=total damage; 0=no damage)” value (Rates 15, 20 DAA)?
Its value is 0.

And the “AMARE damage to plant (100=total damage; 0=no damage)” value (Rates 15, 20 DAA)?
The value was 0.

What about the “DIGSA damage to plant (100=total damage; 0=no damage)” value (Rates 15, 20 DAA) of the same compound?
Its value is 0.

What about the “ECHCG damage to plant (100=total damage; 0=no damage)” value (Rates 15, 20 DAA) of the same compound?
The value was 0.

And the “ORYSA damage to plant (100=total damage; 0=no damage)” value (Rates 15, 20 DAA)?
The value was 0.

And the “PANMI damage to plant (100=total damage; 0=no damage)” value (Rates 15, 20 DAA)?
The value was 0.

What about the “SETFA damage to plant (100=total damage; 0=no damage)” value (Rates 15, 20 DAA) of the same compound?
Its value is 0.

And the “ABUTH damage to plant (100=total damage; 0=no damage)” value (Rates 30, 20 DAA)?
The value was 0.

And the “AMARE damage to plant (100=total damage; 0=no damage)” value (Rates 30, 20 DAA)?
The value was 0.

And the “DIGSA damage to plant (100=total damage; 0=no damage)” value (Rates 30, 20 DAA)?
Its value is 30.

And the “ECHCG damage to plant (100=total damage; 0=no damage)” value (Rates 30, 20 DAA)?
The value was 10.

What about the “ORYSA damage to plant (100=total damage; 0=no damage)” value (Rates 30, 20 DAA) of the same compound?
The value was 0.

And the “PANMI damage to plant (100=total damage; 0=no damage)” value (Rates 30, 20 DAA)?
The value was 0.

What about the “SETFA damage to plant (100=total damage; 0=no damage)” value (Rates 30, 20 DAA) of the same compound?
Its value is 0.

What about the “ABUTH damage to plant (100=total damage; 0=no damage)” value (Rates 60, 20 DAA) of the same compound?
Its value is 0.

And the “AMARE damage to plant (100=total damage; 0=no damage)” value (Rates 60, 20 DAA)?
Its value is 0.

What about the “DIGSA damage to plant (100=total damage; 0=no damage)” value (Rates 60, 20 DAA) of the same compound?
The value was 80.

What about the “ECHCG damage to plant (100=total damage; 0=no damage)” value (Rates 60, 20 DAA) of the same compound?
Its value is 50.

What about the “ORYSA damage to plant (100=total damage; 0=no damage)” value (Rates 60, 20 DAA) of the same compound?
Its value is 0.

What about the “PANMI damage to plant (100=total damage; 0=no damage)” value (Rates 60, 20 DAA) of the same compound?
Its value is 0.

And the “SETFA damage to plant (100=total damage; 0=no damage)” value (Rates 60, 20 DAA)?
Its value is 0.

What about the “ABUTH damage to plant (100=total damage; 0=no damage)” value (Rates 130, 20 DAA) of the same compound?
The value was 0.

And the “AMARE damage to plant (100=total damage; 0=no damage)” value (Rates 130, 20 DAA)?
The value was 0.

What about the “DIGSA damage to plant (100=total damage; 0=no damage)” value (Rates 130, 20 DAA) of the same compound?
Its value is 90.

What about the “ECHCG damage to plant (100=total damage; 0=no damage)” value (Rates 130, 20 DAA) of the same compound?
Its value is 70.

And the “ORYSA damage to plant (100=total damage; 0=no damage)” value (Rates 130, 20 DAA)?
The value was 0.

What about the “PANMI damage to plant (100=total damage; 0=no damage)” value (Rates 130, 20 DAA) of the same compound?
Its value is 0.

And the “SETFA damage to plant (100=total damage; 0=no damage)” value (Rates 130, 20 DAA)?
The value was 30.

And the “ABUTH damage to plant (100=total damage; 0=no damage)” value (Rates 250, 20 DAA)?
The value was 20.

What about the “AMARE damage to plant (100=total damage; 0=no damage)” value (Rates 250, 20 DAA) of the same compound?
Its value is 0.

And the “DIGSA damage to plant (100=total damage; 0=no damage)” value (Rates 250, 20 DAA)?
The value was 90.

What about the “ECHCG damage to plant (100=total damage; 0=no damage)” value (Rates 250, 20 DAA) of the same compound?
The value was 90.

And the “ORYSA damage to plant (100=total damage; 0=no damage)” value (Rates 250, 20 DAA)?
The value was 0.

And the “PANMI damage to plant (100=total damage; 0=no damage)” value (Rates 250, 20 DAA)?
Its value is 0.

And the “SETFA damage to plant (100=total damage; 0=no damage)” value (Rates 250, 20 DAA)?
Its value is 60.

What about the “ABUTH damage to plant (100=total damage; 0=no damage)” value (Rates 500, 20 DAA) of the same compound?
Its value is 20.

And the “AMARE damage to plant (100=total damage; 0=no damage)” value (Rates 500, 20 DAA)?
The value was 10.

And the “DIGSA damage to plant (100=total damage; 0=no damage)” value (Rates 500, 20 DAA)?
Its value is 90.

And the “ECHCG damage to plant (100=total damage; 0=no damage)” value (Rates 500, 20 DAA)?
The value was 90.

And the “ORYSA damage to plant (100=total damage; 0=no damage)” value (Rates 500, 20 DAA)?
Its value is 0.

What about the “PANMI damage to plant (100=total damage; 0=no damage)” value (Rates 500, 20 DAA) of the same compound?
Its value is 0.

And the “SETFA damage to plant (100=total damage; 0=no damage)” value (Rates 500, 20 DAA)?
Its value is 90.
